Common to all, as to type: in vitro ADME, human
Data set [1] can be described thus: Soluble peptide degradation, Media condition (cell-conditioned media, LC-MS). As to conditions: for remaining at 24 h, 50 µM / remaining at 24 h: human. In outline:
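Pooled peptide library added to medium conditioned by hUVECs or hMSCs with cells removed. Fraction remaining after 24 h measured by LC-MS (positive-ion ESI). Value is peptide peak area relative to 50 µM non-degradable βFβA6 internal standard.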

A further data set deals with hMSCs. The data set can be described thus: Soluble peptide degradation, Cells condition (LC-MS). Particulars: for peptide remaining after 24 h, Cells condition, hMSCs: 50 µM soluble peptide; for Fraction of peptide remaining after 24 hours: hMSC Cells: individually synthesized soluble peptide, media on hMSCs, ratio to βFβA6. The procedure, abridged:
(§1)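 Pooled synthetic TAILS-derived peptides added to hUVEC or hMSC cultures (Cells) or cell-free conditioned media (Media); MMP-14 inhibitor NSC 405 020 at 10 µM final. Samples taken at 0 and 24 h, acidified, analysed by LC-MS; peak areas normalised to 50 µM βFβA6 internal standard, 24 h/0 h gives fraction remaining.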

The test system of a further data set is MMP-14. The data set is described as above. As to conditions: human. The procedure, abridged:
as §1

Assay in data set [2]: as above
Particulars: human; for remaining at 24 h, 50 µM: Figure 3C, individually synthesized soluble peptide, N = 6. In outline: as §1

The mark [3] stands for this setting: Figure 2B heatmap, pooled TAILS-derived soluble peptides in 24 h hUVEC-conditioned media without cells, 24 h, LC-MS, ratio to βFβA6 internal standard, 24 h / 0 h, N = 5, read-out: Fraction of peptide remaining at 24 hours: hUVEC Media.
Setting [4] is: with NSC 405 020 (MMP-14 inhibitor), Figure 3C, 50 µM peptide, media on hMSCs with MMP-14 inhibitor NSC 405 020 10 µM, 24 h, LC-MS, N = 6, read-out: Fraction of peptide remaining after 24 hours: hMSC +Inhibitor.
[5] abbreviates: with NSC 405 020 (MMP-14 inhibitor), Figure 3C, 50 µM peptide, media on hUVECs with MMP-14 inhibitor NSC 405 020 10 µM, 24 h, LC-MS, N = 6, read-out: Fraction of peptide remaining after 24 hours: hUVEC +Inhibitor.
Setting [6] is: hMSCs in culture with fresh media (Cells condition), Figure 2B heatmap, pooled TAILS-derived soluble peptides (Ac-βAla N-terminus, βAla-amide C-terminus) in media on hMSCs (36000 per well, 48 well plate, 500 µL), 24 h, LC-MS, ratio to βFβA6 internal standard, 24 h / 0 h, N = 5, read-out: Fraction of peptide remaining at 24 hours: hMSC Cells.
[7] abbreviates: hUVECs in culture with fresh media (Cells condition), Figure 2B heatmap, pooled TAILS-derived soluble peptides in media on hUVECs (75000 per well, 48 well plate, 500 µL), 24 h, LC-MS, ratio to βFβA6 internal standard, 24 h / 0 h, N = 5, read-out: Fraction of peptide remaining at 24 hours: hUVEC Cells.
Setting [8] is: hUVECs in culture with fresh media (Cells condition), media on hUVECs, 24 h, LC-MS, ratio to βFβA6, read-out: Fraction of peptide remaining after 24 hours: hUVEC Cells.
[9] abbreviates: Figure 3C, individually synthesized soluble peptide, 50 µM, hUVEC-conditioned media without cells, 24 h, LC-MS, ratio to βFβA6, N = 6.
The mark [10] stands for this setting: Figure 3C, 50 µM, 24 h, LC-MS, N = 6.

Where two headings read alike, the source gives them in different places. Where a SMILES comes first, the peptide text is derived from it. [ ]: non-standard residue; d: D form. βAla = NCCC(=O)O

As to `CC(=O)NCCC(=O)N[C@@H](CCCCN)C(=O)N[C@@H](CC(C)C)C(=O)N[C@H](C(=O)N[C@@H](C)C(=O)N[C@@H](CC(=O)O)C(=O)N[C@@H](CC(N)=O)C(=O)N[C@@H](Cc1ccc(O)cc1)C(=O)N[C@@H](C)C(=O)N[C@@H](CO)C(=O)N[C@@H](C)C(=O)N[C@@H](CCC(=O)O)C(=O)NCCC(N)=O)C(C)C` [KLVAD-NY] (Ac-[βAla]KLVADNYASAE[βAla]-NH2), in data set [1] (Figure 2B screen, hUVEC-conditioned media, 24 h, LC-MS), the “degradation in Media condition” value is “less than 3%”. Besides, the “Fraction of peptide remaining after 24 hours: hUVEC Media” value in data set [1] (Figure 3B heatmap, split-and-pool libraries KLVADX1X2ASAE in hUVEC-conditioned media without cells, 24 h, LC-MS, ratio to βFβA6, N = 2) is listed as 0.98. The amount remaining at 24 h, 50 µM in data set [1] (hUVEC-conditioned media without cells (Media condition), Figure 3C, individually synthesized soluble peptide, 50 µM, hUVEC-conditioned media without cells, 24 h, LC-MS, ratio to βFβA6, N = 6, read-out: Fraction of peptide remaining after 24 hours: hUVEC Media) is 102%; in the data set with MMP-14 (setting [4]), 87%; in the data set with MMP-14 (setting [5]), 98%; in data set [2] (hMSCs in culture with fresh media (Cells condition), media on hMSCs, 24 h, LC-MS, ratio to βFβA6, read-out: Fraction of peptide remaining after 24 hours: hMSC Cells) it was 78%; in data set [2] (setting [8]), 96%. Moreover, the share remaining at 24 h is 100% in data set [1] (setting [3]), 70% in data set [2] (setting [6]) and 92% in data set [2] (setting [7]). Moreover, the “remaining after 24 h in the Cells condition for hMSCs” value in the data set on hMSCs (Figure 2B screen, 24 h, LC-MS) is given as 70%. The “peptide remaining after 24 h, Cells condition, hMSCs” value in the data set with hMSCs (Figure 3C, LC-MS, N = 6) worked out at 78%.

Regarding `CSCC[C@H](NC(=O)[C@H](CC(C)C)NC(=O)[C@H](CC(=O)O)NC(=O)[C@H](C)NC(=O)[C@@H](NC(=O)[C@H](CC(C)C)NC(=O)[C@H](CCCCN)NC(=O)CCNC(C)=O)C(C)C)C(=O)N[C@@H](C)C(=O)N[C@@H](CO)C(=O)N[C@@H](C)C(=O)N[C@@H](CCC(=O)O)C(=O)NCCC(N)=O` [KLVAD-LM] (Ac-[βAla]KLVADLMASAE[βAla]-NH2), the “degraded across all Media conditions” value in data set [1] was “less than 10%”. Also, the amount remaining at 24 h, 50 µM in data set [1] (cells or culture medium) came out at 93%; in the data set with MMP-14 (cells or culture medium), 100%; in the data set with MMP-14 (cells or culture medium, Fraction of peptide remaining after 24 hours: hMSC +Inhibitor), 82%. The share remaining at 24 h in data set [2] (cells or culture medium) came out at 87%; in data set [2] (cells or culture medium, Fraction of peptide remaining after 24 hours: hMSC Cells), 39%.

As to `CC[C@H](C)[C@H](NC(=O)CNC(=O)[C@H](CCC(N)=O)NC(=O)[C@@H]1CCCN1C(=O)CNC(=O)CCNC(C)=O)C(=O)N[C@@H](Cc1c[nH]c2ccccc12)C(=O)NCC(=O)N[C@@H](CCC(N)=O)C(=O)NCCC(N)=O` [PanMMP, reference compound] (Ac-[βAla]GPQGIWGQ[βAla]-NH2), in data set [1] (Figure 3C, 50 µM soluble peptide, 24 h, LC-MS, N = 6), the “peptide remaining, Media condition, hUVECs” value is on record as 89%. The “Fraction of peptide remaining after 24 hours: hUVEC Media” value in data set [1] (setting [9]) came to 0.89. Besides, the share remaining at 24 h, 50 µM was 78% in data set [1] (hUVEC-conditioned media without cells, no exogenous MMP-14, Figure 7 study, 24 h, LC-MS, N = 3 with technical triplicates, read-out: peptide remaining in hUVEC conditioned media without exogenous MMP-14) and 95% in the data set on MMP-14 (setting [5]). The figures for the amount remaining at 24 h in data set [1] (setting [3]), in data set [2] (setting [6]) and in data set [2] (setting [7]) were 93%, 39% and 69%, respectively. The “peptide remaining, Cells + MMP-14 inhibitor, hMSCs” value in the data set on hMSCs (24 h, 50 µM) is reported as 78%. In the data set on hMSCs (Figure 3C, 50 µM peptide, media on hMSCs with MMP-14 inhibitor NSC 405 020 10 µM, 24 h, LC-MS, N = 6), the “Fraction of peptide remaining after 24 hours: hMSC +Inhibitor” value stood at 0.78. Moreover, in the data set on hMSCs (Figure 3C, LC-MS, N = 6), the “peptide remaining after 24 h, Cells condition, hMSCs” value is reported as 35%. In addition, in the data set on hMSCs (setting [10]), the “Fraction of peptide remaining after 24 hours: hMSC Cells” value is 0.35. The metabolised at 24 h in data set [2] (hMSCs in culture with fresh media (Cells condition), Figure 2B screen, hMSCs, 24 h, LC-MS, read-out: amount of degradation in the Cells condition) is 61%.

In the case of `CC(=O)NCCC(=O)N[C@@H](CCCCN)C(=O)N[C@@H](CC(C)C)C(=O)N[C@H](C(=O)N[C@@H](C)C(=O)N[C@@H](CC(=O)O)C(=O)N1CCC[C@H]1C(=O)N[C@@H](Cc1ccc(O)cc1)C(=O)N[C@@H](C)C(=O)N[C@@H](CO)C(=O)N[C@@H](C)C(=O)N[C@@H](CCC(=O)O)C(=O)NCCC(N)=O)C(C)C` [KLVAD-PY] (Ac-[βAla]KLVADPYASAE[βAla]-NH2), the “Fraction of peptide remaining after 24 hours: hUVEC Media” value in data set [1] (setting [9]) was 1.11. Also, the share remaining at 24 h was 118% in data set [1] (hUVEC-conditioned media without cells (Media condition), Figure 3B heatmap, split-and-pool libraries KLVADX1X2ASAE in hUVEC-conditioned media without cells, 24 h, LC-MS, ratio to βFβA6, N = 2, read-out: Fraction of peptide remaining after 24 hours: hUVEC Media); 56% in data set [2] (hMSCs in culture with fresh media (Cells condition), Figure 3B heatmap, split-and-pool libraries KLVADX1X2ASAE (19 or 38 peptides per library) in media on hMSCs, 24 h, LC-MS, ratio to βFβA6, N = 2, read-out: Fraction of peptide remaining after 24 hours: hMSC Cells); 94% in data set [2] (hUVECs in culture with fresh media (Cells condition), Figure 3B heatmap, split-and-pool libraries KLVADX1X2ASAE in media on hUVECs, 24 h, LC-MS, ratio to βFβA6, N = 2, read-out: Fraction of peptide remaining after 24 hours: hUVEC Cells). Moreover, the “Fraction of peptide remaining after 24 hours: hMSC Cells” value with hMSCs (setting [10]) is given as 0.52. Besides, the share remaining at 24 h, 50 µM with MMP-14 (setting [4]) was determined as 89%; in the data set with MMP-14 (setting [5]), 100%; in data set [2] (setting [8]) it was 88%.
